According to PMC3422893 (Journal of medicinal chemistry, 2011):

Tests used:
[1] = test system: SAPK/JNK; assay: Western blot of SAPK/JNK pathway activation in H1703 cells; assay type: cell-based, human
[2] = test system: ATF3; assay: Western blot of ATF3 protein in H1703 cells; assay type: cell-based, human
[3] = test system: PARP; assay: Western blot of PARP cleavage; assay type: cell-based, human; conditions: H1703 cells, 1 µM, 1, 4, or 6 h
[4] = test system: H1703 cells; assay: H1703 non-small cell lung cancer xenograft model; assay type: in vivo, athymic NCr-nu/nu mice; conditions: three times a week for 3 weeks
[5] = test system: H1703 xenograft tumors; assay: H&E staining and immunohistochemistry of xenograft tumors; assay type: in vivo, athymic NCr-nu/nu mice

## CCOC(=O)N1CCN(/[N+]([O-])=N/Oc2ccc([N+](=O)[O-])cc2[N+](=O)[O-])CC1 [Compound 1, O^2-(2,4-dinitrophenyl) 1-[(4-ethoxycarbonyl)piperazin-1-yl]diazen-1-ium-1,2-diolate]
[1]
  SAPK/JNK activation (phosphorylation): caused SAPK/JNK activation
[1]; 1 µM
  time to detection of SAPK/JNK phosphorylation: ≤ 30 min
[2]; 1 µM
  ATF3 protein expression: induced
[3]
  cleavage of PARP: resulted in cleavage of PARP
[4]; 6 µmol/kg i.v.
  growth of H1703 cells in vivo: significantly reduced growth
[5]; 6 µmol/kg i.v.
  ATF3 protein level in tumors, immunohistochemistry: upregulation in ATF3 protein level
  P-SAPK/JNK in tumors, immunohistochemistry: phosphorylation of SAPK/JNK
  tissue death in tumors, H&E staining: significant tissue death

## CCOC(=O)N1CCN(/[N+]([O-])=N/Oc2cc(C)c([N+](=O)[O-])cc2[N+](=O)[O-])CC1 [Compound 6, O^2-(2,4-Dinitro-5-methylphenyl) 1-[(4-Ethoxycarbonyl)piperazin-1-yl]diazen-1-ium-1,2-diolate]
[4]; 8 µmol/kg i.v.
  growth of H1703 cells in vivo: did not result in reduction in H1703 tumor growth in vivo
[5]; 8 µmol/kg i.v.
  ATF3 protein level in tumors, immunohistochemistry: comparable to that of the control
  P-SAPK/JNK in tumors, immunohistochemistry: did not stain for P-SAPK/JNK

## O=C1c2ccccc2-c2n[nH]c3cccc1c23 [1,9-pyrazoloanthrone, reference compound]
[1]; pretreatment 50 µM, 30 min
  effect on 1-induced activation of ATF2 and c-jun: inhibited
[2]; pretreatment 50 µM, 30 min
  effect on 1-induced ATF3 upregulation: partially blocked

## O=S(=O)(O)c1cc(O)c(O)c(S(=O)(=O)O)c1 [Tiron, reference compound]
[1]; pretreatment 10 mM for 1 h, then 30-min incubation with 1 or 2
  effect on SAPK/JNK phosphorylation resulting from 1 or 2: attenuated SAPK/JNK phosphorylation
